38 compounds from patent US20210236476A1, “METHODS OF TREATING CANCER WITH SMALL MOLECULE PD-L1 INHIBITORS” (CHEMOCENTRYX, INC., priority 2018, published 2021) can be followed below.

In general, IC50 refers to the point on the concentration scale where inhibition reaches its midpoint.

This assay has as its target T1, human PD-L1 / human PD-1 interaction (Homo sapiens, UniProt Q9NZQ7).
T1 construct: purchased R&D (PD-L1); ACRO Biosystems (PD-1, biotin)
As to the kind of experiment: ELISA of PD-1/PD-L1 interaction. Type of assay: binding. Summed up: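 Plates coated with 1 μg/mL human PD-L1 and blocked with BSA; serially diluted (1:5) compounds plus biotinylated human PD-1 (0.3 μg/mL) incubated 1 h at 37° C. Bound PD-1 detected with streptavidin-HRP/TMB, absorbance at 450 nm.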
Background: In an ELISA, binding on a coated surface is turned into a signal by an enzyme label.

T1 sequence (Q9NZQ7 19-239 limits assumed): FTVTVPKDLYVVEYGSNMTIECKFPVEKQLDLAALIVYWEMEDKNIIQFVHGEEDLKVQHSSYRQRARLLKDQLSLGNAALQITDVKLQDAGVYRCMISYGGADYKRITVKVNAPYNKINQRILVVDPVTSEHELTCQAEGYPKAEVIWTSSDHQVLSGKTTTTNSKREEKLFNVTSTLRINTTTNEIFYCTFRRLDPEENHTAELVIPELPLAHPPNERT

With `Cc1c(OCCCN2CCC(O)CC2)cccc1-c1cccc2c1CCC2Oc1cc(OCc2cncc(C#N)c2)c(CN[C@H](C(=O)O)[C@@H](C)O)cc1Cl` (some centres unmarked), the IC50 is less than 5 nM.

`Cc1c(OCCCN2CCC(O)CC2)cccc1-c1cccc2c1CCC2Oc1cc(OCc2cc(C#N)cc(C#N)c2)c(CN[C@@H](CO)C(=O)O)cc1Cl` (some centres unmarked) returned an IC50 of less than 5 nM.

As to `Cc1c(OCCCN2CC[C@@H](O)[C@H](F)C2)cccc1-c1cccc2c1CC[C@@H]2Oc1cc(OCc2cncc(C#N)c2)c(CN[C@H](C(=O)O)[C@@H](C)O)cc1Cl`, the IC50 was 5 to 500 nM.

`Cc1c(OCCCN2CCC(O)CC2)cccc1-c1cccc2c1CC[C@@H]2Oc1cc(OCc2cc(C#N)cc(C#N)c2)c(CN[C@H](C(=O)O)[C@@H](C)O)cc1Cl` came in with an IC50 of less than 5 nM.

With `Cc1c(OCCCN2CCC(O)CC2)cccc1-c1cccc2c1CC[C@@H]2Oc1cc(OCc2cc(C#N)cc(C#N)c2)c(CN[C@@H]2CCCC[C@@H]2O)cc1Cl`, the IC50 is less than 5 nM.

Regarding `Cc1c(OCCCN2CC[C@H](O)[C@H](F)C2)cccc1-c1cccc2c1CC[C@@H]2Oc1cc(OCc2cncc(C#N)c2)c(CN[C@H](C(=O)O)[C@@H](C)O)cc1Cl`, the IC50 was less than 5 nM.

The compound `Cc1c(OCCCN2CCC[C@H]2CO)cccc1-c1cccc2c1CC[C@@H]2Oc1cc(OCc2cncc(C#N)c2)c(CN[C@H](C(=O)O)[C@@H](C)O)cc1Cl` yielded an IC50 of less than 5 nM.

The compound `Cc1c(OCCCN[C@@H]2CCCC[C@@H]2O)cccc1-c1cccc2c1CC[C@@H]2Oc1cc(OCc2cncc(C#N)c2)c(CN[C@H](C(=O)O)[C@@H](C)O)cc1Cl` had a half-maximal inhibitory concentration (IC50) of less than 5 nM.

With `N#Cc1cncc(COc2cc(O[C@H]3CCc4c(-c5cccc(OCCCN6CCC(O)CC6)c5Cl)cccc43)c(Cl)cc2CN[C@@H]2CCCC[C@@H]2O)c1`, the IC50 was less than 5 nM.

In turn, `N#Cc1cncc(COc2cc(O[C@H]3CCc4c(-c5cccc(OCCCN6CCC(O)CC6)c5Cl)cccc43)c(Cl)cc2CNC(CO)CO)c1` displayed an IC50 of less than 5 nM.

`Cc1c(OCCCNC[C@@H](O)CO)cccc1-c1cccc2c1CC[C@@H]2Oc1cc(OCc2cncc(C#N)c2)c(CN[C@H](C(=O)O)[C@@H](C)O)cc1Cl` yielded an IC50 of less than 5 nM.

Consider `Cc1c(OCCCN2CCC(O)CC2)cccc1-c1cccc2c1CC[C@H]2Oc1cc(OCc2cncc(C#N)c2)c(CN[C@H](C(=O)O)[C@@H](C)O)cc1Cl`, for which the IC50 was less than 5 nM.

In the case of `Cc1c(OCCCN2CCC(O)CC2)cccc1-c1cccc2c1CC[C@@H]2Oc1cc(OCCCN2CC[C@@H](O)C2)c(CN[C@@H]2CCCC[C@@H]2O)cc1Cl`, the IC50 was less than 5 nM.

Compound `CCOc1cc(O[C@H]2CCc3c(-c4cccc(OCCCN5CC(O)C5)c4C)cccc32)c(Cl)cc1CN[C@@H](CO)C(=O)O` showed a 50% inhibitory concentration (IC50) of less than 5 nM.

`CCOc1cc(O[C@H]2CCc3c(-c4cccc(OCCCN5CCC(F)CC5)c4C)cccc32)c(Cl)cc1CN[C@@H](CO)C(=O)O`: the IC50 was less than 5 nM.

`CCOc1cc(O[C@H]2CCc3c(-c4cccc(OCCCN5CC6(CC(O)C6)C5)c4C)cccc32)c(Cl)cc1CN[C@@H](CO)C(=O)O`: the IC50 is less than 5 nM.

Compound `Cc1c(OCCCN2CC[C@H](F)C[C@@H]2C)cccc1-c1cccc2c1CC[C@@H]2Oc1cc(OCc2cc(C#N)cc(C#N)c2)c(CN[C@H]2CCC(=O)NC2)cc1Cl` had an IC50 of 5 to 500 nM.

In turn, `CCOc1cc(O[C@H]2CCc3c(-c4cccc(OCCCN5CCC5(C)C)c4C)cccc32)c(Cl)cc1CNC[C@@H]1CCC(=O)N1` displayed an IC50 of less than 5 nM.

Turning to `CCOc1cc(O[C@H]2CCc3c(-c4cccc(OCCCN5[C@H](C)CC[C@H]5C)c4C)cccc32)c(Cl)cc1CNC[C@@H]1CCC(=O)N1`, the IC50 was less than 5 nM.

The compound `CCOc1cc(O[C@H]2CCc3c(-c4cccc(OCCCN5CCC[C@@H]5C(C)C)c4C)cccc32)c(Cl)cc1CNC[C@@H]1CCC(=O)N1` had an IC50 of less than 5 nM.

In turn, `CCOc1cc(O[C@H]2CCc3c(-c4cccc(OCCCN(C)C(C)(C)C)c4C)cccc32)c(Cl)cc1CNC[C@@H]1CCC(=O)N1` yielded an IC50 of less than 5 nM.

With `CCOc1cc(O[C@H]2CCc3c(-c4cccc(OCCCN(C)C(C)C)c4C)cccc32)c(Cl)cc1CNC[C@@H]1CCC(=O)N1`, the IC50 was less than 5 nM.

`CCOc1cc(O[C@H]2CCc3c(-c4cccc(OCCCN5CCCC5(C)C)c4C)cccc32)c(Cl)cc1CNC[C@@H]1CCC(=O)N1`: the IC50 was less than 5 nM.

The compound `CCOc1cc(O[C@H]2CCc3c(-c4cccc(OCCCN5C(C)CC5(C)C)c4C)cccc32)c(Cl)cc1CNC[C@@H]1CCC(=O)N1` (some centres unmarked) had a half-maximal inhibitory concentration (IC50) of less than 5 nM.

With `CCOc1cc(O[C@H]2CCc3c(-c4cccc(OCCCN5CCC5(C)C)c4C)cccc32)c(Cl)cc1CNCCO`, the IC50 was less than 5 nM.

Compound `CCOc1cc(O[C@H]2CCc3c(-c4cccc(OCCCN5C(C)CC5C)c4C)cccc32)c(Cl)cc1CNC[C@@H]1CCC(=O)N1` (some centres unmarked) yielded a 50% inhibitory concentration (IC50) of less than 5 nM.

The compound `CCOc1cc(O[C@H]2CCc3c(-c4cccc(OCCCN5CCC5(C)C)c4C)cccc32)c(Cl)cc1CN(C)CC(=O)O` yielded an IC50 of 5 to 500 nM.

With `CCOc1cc(O[C@H]2CCc3c(-c4cccc(OCCCN5[C@H](C)CC[C@H]5C)c4C)cccc32)c(Cl)cc1CN1CCCC[C@H]1C(=O)O`, the 50% inhibitory concentration (IC50) fell in the range of 5 to 500 nM.

As for `Cc1c(OCCCN2CCC(O)CC2)cccc1-c1cccc2c1CC[C@@H]2Oc1cc(OCc2cncc(C#N)c2)c(CN(C)[C@H](C(=O)O)[C@@H](C)O)cc1Cl`, the half-maximal inhibitory concentration (IC50) was less than 5 nM.

In the case of `CN(Cc1cc(Cl)c(O[C@H]2CCc3c(-c4cccc(OCCCN5CC(O)C5)c4Cl)cccc32)cc1OCc1cncc(C#N)c1)[C@@](C)(CO)C(=O)O`, the IC50 was less than 5 nM.

On to `Cc1c(OCCCN2CCC(F)CC2)cccc1-c1cccc2c1CC[C@@H]2Oc1cc(OCc2cncc(C(N)=O)c2)c(CN(C)CCC(=O)O)cc1Cl`, for which the IC50 is less than 5 nM.

Compound `CCOc1cc(O[C@H]2CCc3c(-c4cccc(OCCCN5CCC5(C)C)c4C)cccc32)c(Cl)cc1CNCCC(=O)OC(C)C` displayed an IC50 of 5 to 500 nM.

For the compound `CCOc1cc(O[C@H]2CCc3c(-c4cccc(OCCCN5CCC5(C)C)c4C)cccc32)c(Cl)cc1CN(C)CCCC(=O)O`, the IC50 is less than 5 nM.

In the case of `Cc1c(OCCCN2CCC(F)CC2)cccc1-c1cccc2c1CC[C@@H]2Oc1cc(OCc2cncc(C#N)c2)c(CNCCS(=O)(=O)O)cc1Cl`, the IC50 is less than 5 nM.

`CCOc1cc(O[C@H]2CCc3c(-c4cccc(OCCCN5CCC5(C)C)c4C)cccc32)c(Cl)cc1CN1CC[C@H](C(=O)O)C1` displayed an IC50 of 5 to 500 nM.

Compound `C[C@@](CO)(NCc1cc(Cl)c(O[C@H]2CCc3c(-c4cccc(OCCCN5CC(O)C5)c4Cl)cccc32)cc1OCc1cncc(C#N)c1)C(=O)O` [drawing 79] displayed an IC50 of less than 5 nM.

In turn, `N#Cc1cncc(COc2cc(O[C@H]3CCc4c(-c5cccc(OCCCN6CCC(F)CC6)c5Cl)cccc43)c(Cl)cc2CN[C@H]2CCOC[C@@H]2O)c1` [drawing 198] gave an IC50 of less than 5 nM.

Turning to `N#Cc1cncc(COc2cc(O[C@H]3CCc4c(-c5cccc(OCCCN6CCC(F)CC6)c5Cl)cccc43)c(Cl)cc2CN[C@H]2CCOC[C@@H]2O)c1` [drawing 235], the IC50 is less than 5 nM.
